How the values were obtained:
[1] = tested on: t-lymphocyte dependent and t-lymphocyte independent immune responses; test: Humoral immune responses in mice (Example 37); format: in vivo, balb/c strain mice; details: 3% by wt. in water
Protocol: Laboratory mice genetically predisposed to lymphoma development were selected for this test. Humoral immunity participation was measured as was the effect of methylsulfonylmethane on an animal's life span. One set of 12 mice were maintained as controls. The treated (T) group received identical treatment except for their water given ad lib, which contained 3% by wt. of methylsulfonylmethane in solution.
By month 4 of this test, all controls were dead, due to lymphoma development. […] These normal balb/c strain mice of group T were tested for t-lymphocyte dependent (t-d) and t-lymphocyte independent (t-i) immune responses. […] Based on these preliminary results, at high enough daily rates of ingestion, methylsulfonylmethane stimulates humoral immunity thereby providing protection to otherwise lethal spontaneous mouse lymphomas.

[2] = tested on: leg cramps; test: Leg cramps in marathon runner (Example 27); format: in vivo, human; details: 15 mg/kg/day, at least 7 days
Protocol: Before a marathon race, administer methylsulfonylmethane to the runner for at least 7 days at the rate of 15 mg/kg/day.

[3] = tested on: acute pain; test: Acute pain (Example 21); format: in vivo, human; details: single 1.5 gm dose; two 1 gm doses at 4-hour intervals, oral
[4] = tested on: intractable pain; test: Pain in humans (Example 31); format: in vivo, human
Description: The following patients suffering from intractable pain were given methylsulfonylmethane orally in the amounts and for the period of time set forth in the table below: […]

[5] = tested on: Giardia lamblia; test: Treatment of Giardia infection in a subject (Example 28(b)); format: in vivo, human; details: 500 mg orally three times/24 hours × 14 days
Protocol: One subject with confirmed Giardia, apparently contacted from contaminated water in a primitive area, was given 500 mg of methylsulfonylmethane orally three times/24 hours×14 days. By the eighth day they were asymptomatic.

[6] = tested on: nutritional secondary hyperparathyroidism with obvious epiphysitis; test: Nutritional secondary hyperparathyroidism with epiphysitis in horses (Example 3); format: in vivo, horse; details: 12 grams twice daily in feed; conventional treatment 60-90 days minimum
Description: Calcium/phosphorous balance is critical in the horse, where these elements comprise roughly 70% of the mineral content of the horse's body. Calcium deficiency, or the reverse, viz., phosphorous excess, is undesirable. Phosphorous excess in feed will decrease intestinal absorption, resulting in lowered blood plasma calcium. One result is a stimulation in the dietary deficiency condition called nutritional secondary hyperparathyroidism. Calcium denied for bone development results in an enlargement of structurally defective fibrous tissue. In horse leg bones, it is called epiphysitis when stress inflammation is presented.
Two colts and four fillies were studied, all diagnosed as having nutritional secondary hyperparathyroidism with obvious epiphysitis. Each was provided with 12 grams of methylsulfonylmethane twice daily in a bran/molasses blend intermixed with their standard dry feed prior to feeding. The supplemented feed was well accepted. All signs and symptoms of this nutritional deficiency disease was corrected in from seven to ten days. Conventional treatment for correcting dietary calcium deficiency requires a minimum of 60-90 days before relief from inflammation is obtained. Except for the added methylsulfonylmethane, there was no change in the diet of these […] horses. The added dietary factor corrected this easily recognizable dietary deficiency in all of the horses.

[7] = Naturally occurring body levels of methylsulfonylmethane; format: in vivo, animals
Description: The methylsulfonylmethane is usually provided in the aninmal's normal feed rations, periodically throughout the day or on successive days, or both, e.g., for 2 to 21 days or even longer. The daily food ration appropriate for the animal being fed is supplemented with an amount of methylsulfonylmethane calculated to correspond to a predetermined amount per total body weight of the animals being fed. The exact amount of methylsulfonylmethane ingested each day is not always critical, particularly when methylsulfonylmethane administration is over an extended period of days, because the ingested methylsulfonylmethane accumulates in the body tissues and fluids, i.e., reaches an effective titer. Methylsulfonylmethane-supplemented rations providing levels of as low as 0.5-1 mg/kg animal body weight are sometimes effective and levels as high as 300 mg/kg body weight or more are well tolerated. The usual target level per individual animal is about 0.2-2.0 mg/kg body weight preferably 0.5-1.0 mg per kg body weight. Total daily supplements corresponding to up to about 1 gm/kg body weight or more, are preferably employed, depending on the degree of deficiency. Healthy animals often have methylsulfonylmethane blood levels of at least 1 ppm, and desirably, enough methylsulfonylmethane is provided to raise blood levels to above 1 ppm. […]

[8] = tested on: epiphysitis; details: oral; cited from earlier work
[9] = tested on: physical fatigue syndrome; test: Post-athletic activity fatigue (Example 25); format: in vivo, human; details: 1-2 gm/day, preceding six months; usually 8-10 days
Description: The physical fatigue syndrome following intense athletic activity in competitive sports which usually persists for 8-10 days in athletes was gone in 2-3 days in individuals who had ingested methylsulfonylmethane (from 1-2 gm/day in split dosages) for the preceding six months.

[10] = tested on: weight gain; test: Diet supplement in animals (Example 18); format: in vivo, laboratory animals, including dogs
Description: A possible explanation for this is that any minor allergic response to the diet was neutralized by the methylsulfonylmethane.

[11] = tested on: Giardia lamblia; test: In vitro inhibition of Giardia lamblia (Example 28(b)); format: cell-based
Protocol: However, at 20 mg/ml concentration, it was strongly inhibitory and concentrations above 40 mg/ml promptly killed the organism.

[12] = tested on: urinary taurine secretion; details: man; cited from earlier work
[13] = about 60 and about 500 mg/day/kg body wt.

CS(C)(=O)=O [methylsulfonylmethane]
primary IgM and secondary IgG responses to sheep erythrocytes (SRBC) [1]: significantly enhancement | tnp-ficoll response [1]: significant suppression | likelihood of severe leg cramp during or after race [2]: significantly reduced | relief of acute mid-back pain (calculi obstructed ureter) and lower abdomen pain spasms [3]: proven useful in relieving acute pain | Results ([4]; A. B., 69 F, Deg. Arth., 0.5 bid × 18 months): pain relief | Results ([4]; B. A., 63 F, Deg. Arth., 0.25 g qid): pain relief | Results: pain relief ([4]; C. A., 62 M, Bursitis Chronic, 0.25 g bid × 3 months): 50% | Results ([4]; D. B., 35 M, Low back pain, 0.5 g qid × 9 months): pain relief | Results: muscle pain ([4]; I. B., 62 F, Multiple Sclerosis, 0.5 bid × 18 months): reduction | Results ([4]; M. A., 55 F, Rh. Arth., 0.25 g bid × 9 months): pain relief | Results ([4]; N. B., 62 M, Tendonitis, 0.25 g qid): reduced pain | Results ([4]; P. A., 61 F, Deg. Arth., 1 g 4×/day × 19 months): pain relief | organism in two stool specimens ([5]; collected one week apart): free of the organism | symptoms by the eighth day ([5]; one subject): asymptomatic | time to correction of all signs and symptoms [6]: seven to ten | blood level in healthy animals ([7]; healthy animals often): at least 1 ppm | methylsulfonylmethane in the humoral fluid ([7]; with maturity): less than 0.5 ppm | correction of epiphysitis [8]: rapidly corrected | duration of physical fatigue syndrome [9]: 2 to 3 days | fur quality [10, 13]: improved | nail growth [10, 13]: somewhat faster | weight gain of immature animals vs controls [10, 13]: gained weight at a greater rate | weight increases with adult animals ([10]; comparable feeding experiments): not seen | concentration promptly killing the organism [11]: above 40 mg/ml | concentration with no significant inhibition [11]: ≤ 1 mg/mL | strongly inhibitory concentration [11]: 20 mg/mL | urinary taurine secretion produced by aromatic hydrocarbons [12]: enhances

Source: patent US4863748A, “Dietary products and uses comprising methylsulfonylmethane” (priority 1986, dated 1989)
